In US20240360114A1 (SIRONAX LTD., priority 2021, published 2024):

Test system: HT-1080 cells
Assay: HT-1080 cell viability assay (ferroptosis induced by RSL3, Cell Titer-Glo)
Type: cell-based
Settings: ferroptosis inducer RSL3, 20 hours, ferroptosis inhibitory activity, Table 2
Method in brief: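 EC50 fitted by sigmoidal dose-response regression on luminescent viability data normalized to untreated cells. Compounds ran as a 10-point, 3-fold series from 1.1 μM alongside RSL3 for 20 hours, after overnight seeding.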

SMILES | EC50 (Homo sapiens, HT-1080, 20 h) [µM] | also measured
Cc1cc(C(C)(C)C)ccc1NC1CCC(N)CC1 (centres unmarked) [Compound 184, N1-(4-(tert-butyl)-2-methylphenyl)cyclohexane-1,4-diamine] | 0.1 to 1 | 
Cc1nc(N2CC(C)OC(C)(C)C2)ccc1NC1CC2(CC(N)C2)C1 (centres unmarked) [Compound 185, N2-(2-methyl-6-(2,2,6-trimethylmorpholino)pyridin-3-yl)spiro[3.3]heptane-2,6-diamine] | 1 to 10 | 
CC1CN(c2ccc(NC3CC4(CC(N)C4)C3)cc2F)CC(C)N1CC(F)(F)F (centres unmarked) [Compound 186, N2-(4-(3,5-dimethyl-4-(2,2,2-trifluoroethyl)piperazin-1-yl)-3-fluorophenyl) spiro-[3.3]heptane-2,6-diamine] |  | EC50: 0.1 to 1 µM
CC(C)(C)c1ccc(NC2CCC(N)CC2)c(C#N)c1 (centres unmarked) [Compound 187, 2-((4-aminocyclohexyl)amino)-5-(tert-butyl)benzonitrile] | 1 to 10 | 
CCCC(CCC)Nc1ccc(C(C)(C)C)cc1 [Compound 188, 4-(tert-butyl)-N-(heptan-4-yl)aniline] | 0.1 to 1 | 
CC(C)(C)c1ccc(NC2CCC(N)(C(=O)O)CC2)cc1 (centres unmarked) [Compound 189, 1-amino-4-((4-(tert-butyl)phenyl)amino)cyclohexane-1-carboxylic acid] | 1 to 10 | 
CC(C)(C)c1ccc(NC2CCC(N)CC2)c(F)c1 (centres unmarked) [Compound 190, N1-(4-(tert-butyl)-2-fluorophenyl)cyclohexane-1,4-diamine] | 0.1 to 1 | 
CC(C)(C)c1ccc(NC2CCC(C(N)=O)CC2)cc1 (centres unmarked) [Compound 192, 4-((4-(tert-butyl)phenyl)amino)cyclohexane-1-carboxamide] | 0.1 to 1 | 
CNC1CCC(Nc2ccc(C(C)(C)C)cc2)C1 (centres unmarked) [Compound 194, N1-(4-(tert-butyl)phenyl)-N3-methylcyclopentane-1,3-diamine] | 0.1 to 1 | 
CN(C)CC1CCC(Nc2ccc(C(C)(C)C)cc2)CC1 (centres unmarked) [Compound 196, 4-(tert-butyl)-N-(4-((dimethylamino)methyl)cyclohexyl)aniline] | 0.0001 to 0.1 | 
CC(C)(C)c1ccc(N[C@H]2CC[C@H](N)CC2)cc1 [Compound 197, (1r,4r)-N1-(4-(tert-butyl)phenyl)cyclohexane-1,4-diamine] | 0.0001 to 0.1 | 
CC(C)(C)c1ccc(N[C@H]2CC[C@@H](N)CC2)cc1 [Compound 198, (1s,4s)-N1-(4-(tert-butyl)phenyl)cyclohexane-1,4-diamine] | 0.1 to 1 | 
NC1CCC(Nc2ccncc2)CC1 (centres unmarked) [Compound 199, N1-(pyridin-4-yl)cyclohexane-1,4-diamine] | 1 to 10 | 
CC(C)(C)c1ccc(NC2CCC(N)CC2)cc1Cl (centres unmarked) [Compound 201, N1-(4-(tert-butyl)-3-chlorophenyl)cyclohexane-1,4-diamine] | 0.1 to 1 | 
CC(C)(C)c1ccc(NCCN2CCCC2)cc1 [Compound 202, 2-(pyrrolidin-1-yl) acetaldehyde--4-(tert-butyl)-N-(2-(pyrrolidin-1-yl)ethyl)aniline-4-(tert-butyl)aniline] | 1 to 10 | 
CC1(C)CCC(c2ccc(NC(C)(C)CN3CCCC3)cc2)CC1 [Compound 203, 4-(4,4-dimethylcyclohexyl)-N-(2-methyl-1-(pyrrolidin-1-yl)propan-2-yl)aniline] | 0.1 to 1 | 
CC(C)(C)c1ccc(NC2CCc3nc(N)sc3C2)cc1 (centres unmarked) [Compound 204, 4-N-(4-(tert-butyl)phenyl)-4,5,6,7-tetrahydrobenzo[d]thiazole-2,6-diamine] | 0.1 to 1 | 
CC(C)(C)c1ccc(NCCN2CCOCC2)cc1 [Compound 206, U4-(tert-butyl)-N-(2-morpholinoethyl)aniline] | 1 to 10 | 
CC(C)(C)Nc1ccc(C2CCNCC2)cc1 [Compound 207, N-(tert-butyl)-4-(piperidin-4-yl)aniline] | 1 to 10 | 
CCc1ccc(NC2CCC(N)CC2)cn1 (centres unmarked) [Compound 208, N1-(6-ethylpyridin-3-yl)cyclohexane-1,4-diamine] | 1 to 10 | 
CC1(C)CCC(c2ccc(NCCCN)cc2)CC1 [Compound 209, 1-N-(4-(4,4-dimethylcyclohexyl)phenyl)propane-1,3-diamine] | 0.0001 to 0.1 | 
Cc1cc(C)c(NC2CCC(CN)CC2)c(C)c1 (centres unmarked) [Compound 210, N-[4-(aminomethyl)cyclohexyl]-2,4,6-trimethylaniline] | 1 to 10 | 
COCCN(C)CCNc1ccc(C(C)(C)C)cc1 [Compound 211, N1-(4-(tert-butyl)phenyl)-N2-(2-methoxyethyl)-N2-methylethane-1,2-diamine] | 1 to 10 | 
CC(C)(C)c1ccc(NC2CCC(N)(C(N)=O)CC2)cc1 (centres unmarked) [Compound 212, 1-amino-4-((4-(tert-butyl)phenyl)amino)cyclohexane-1-carboxamide] | 1 to 10 | 
C[C@@H](O)[C@H](N)C(=O)NC1CCC(Nc2ccc(C(C)(C)C)cc2)CC1 (stereo partly drawn) [Compound 214, (2S, 3R)-2-amino-N-(4-((4-(tert-butyl)phenyl)amino)cyclohexyl)-3-hydroxybutanamide] | 0.0001 to 0.1 | 
CC(C)(C)c1ccc(NC2CCC(NC(=O)C3CNCCN3)CC2)cc1 (centres unmarked) [Compound 215, N-(4-((4-(tert-butyl)phenyl)amino)cyclohexyl) piperazine-2-carboxamide] | 0.0001 to 0.1 | 
Cc1cc(NC2CCC(N)CC2)ccc1C(C)(C)C (centres unmarked) [Compound 217, N1-(4-(tert-butyl)-3-methylphenyl)cyclohexane-1,4-diamine] | 0.0001 to 0.1 | 

SMILES | EC50 (Homo sapiens, HT-1080, 20 h) [µM] | also measured
CC(C)(C)c1ccc(NC2CCC(N)CC2)cc1C#N (centres unmarked) [Compound 218, 5-((4-aminocyclohexyl)amino)-2-(tert-butyl)benzonitrile] | 0.1 to 1 | 
Cc1cc(C)c(NC2CCC(N)CC2)c(C)c1 (centres unmarked) [Compound 219, N1-mesitylcyclohexane-1,4-diamine] | 1 to 10 | 
CC(C)(C)c1ccc(-c2ccc(NC3CCC(N)CC3)cc2)cc1 (centres unmarked) [Compound 220, N1-(4′-(tert-butyl)-[1,l′-biphenyl]-4-yl)cyclohexane-1,4-diamine] | 0.0001 to 0.1 | 
NC1CCC(Nc2ccc3ccccc3c2)CC1 (centres unmarked) [Compound 221, N1-(naphthalen-2-yl)cyclohexane-1,4-diamine] | 0.0001 to 0.1 | 
CN1CCN(CC(=O)N2CCC(Nc3ccc(C(C)(C)C)cc3)CC2)CC1=O [Compound 222, 4-(2-{4-[(4-tert-butylphenyl)amino]piperidin-1-yl}-2-oxoethyl)-1-methylpiperazin-2-one] |  | EC50 (Homo sapiens): 1 to 10 µM
NC1CCC(Nc2ccc(CC(F)(F)F)cc2)CC1 (centres unmarked) [Compound 223, N1-(4-(2,2,2-trifluoroethyl)phenyl)cyclohexane-1,4-diamine] | 1 to 10 | 
CC(C)(C)c1ccc(NCCOCCN)cc1 [Compound 224, N-(2-(2-aminoethoxy)ethyl)-4-(tert-butyl)aniline] | 0.1 to 1 | 
CC1(C)CCC(c2ccc(NCCCCN)cc2)CC1 [Compound 225, N1-(4-(4,4-dimethylcyclohexyl)phenyl) butane-1,4-diamine] | 0.0001 to 0.1 | 
CC1(C)CCC(c2ccc(NC3CCC(C(C)(C)N)CC3)cc2)CC1 (centres unmarked) [Compound 226, N-(4-(2-aminopropan-2-yl)cyclohexyl)-4-(4,4-dimethylcyclohexyl)aniline] |  | EC50 (Homo sapiens): 0.0001 to 0.1 µM
CC(C)(CN1CCCC1)Nc1ccc(C(C)(C)C)cc1 [Compound 227, 4-(tert-butyl)-N-(2-methyl-1-(pyrrolidin-1-yl)propan-2-yl)aniline] | 1 to 10 | 
CC(C)(CN)Nc1ccc(C(C)(C)C)cc1 [Compound 229] | 1 to 10 | 
CC(C)(C)c1ccc(NC2CCC(NCCO)CC2)cc1 (centres unmarked) [Compound 230, 2-((4-((4-(tert-butyl)phenyl)amino)cyclohexyl)amino)ethan-1-ol] | 0.0001 to 0.1 | 
CC1CC(Nc2ccc(C(C)(C)C)cc2)CCC1O (centres unmarked) [Compound 233A] | 0.1 to 1 | 
CC(C)(C)c1ccc(NC(CCO)CCO)cc1 [Compound 234, 3-((4-(tert-butyl)phenyl)amino) pentane-1,5-diol] | 1 to 10 | 
NCC1CCC(Nc2ccc3c(c2)CCC3)CC1 (centres unmarked) [Compound 235, N-(4-(aminomethyl)cyclohexyl)-2,3-dihydro-1H-inden-5-amine] | 0.0001 to 0.1 | 
NC1CCC(Nc2ccc3c(c2)CCCC3)CC1 (centres unmarked) [Compound 236, N1-(5,6,7,8-tetrahydronaphthalen-2-yl)cyclohexane-1,4-diamine] | 0.0001 to 0.1 | 
CNCC1CC(Nc2ccc(C(C)(C)C)cc2)C1 (centres unmarked) [Compound 237, 4-(tert-butyl)-N-(3-((methylamino)methyl)cyclobutyl)aniline] | 1 to 10 | 
NC1CCC(Nc2cccc3ccccc23)CC1 (centres unmarked) [Compound 238, N1-(naphthalen-1-yl)cyclohexane-1,4-diamine] | 0.0001 to 0.1 | 
NC1CCC(Nc2ccc(Oc3ccccc3)cc2)CC1 (centres unmarked) [Compound 239, N1-(4-phenoxyphenyl)cyclohexane-1,4-diamine] | 0.0001 to 0.1 | 
Cc1ccc(NC2CCC(N)CC2)cc1C (centres unmarked) [Compound 240, N1-(3,4-dimethylphenyl)cyclohexane-1,4-diamine] | 0.1 to 1 | 
CC(C)(C)c1ccc(NC2CCC(CN)C2)cc1 (centres unmarked) [Compound 241, N-(3-(aminomethyl)cyclopentyl)-4-(tert-butyl)aniline] | 0.0001 to 0.1 | 
CC(C)(C)c1ccc(NC2CCC(N)CC2)cc1F (centres unmarked) [Compound 242A, N1-(4-(tert-butyl)-3-fluorophenyl)cyclohexane-1,4-diamine 2,2,2-trifluoroacetate] | 0.0001 to 0.1 | 
CC1(C)CCC(c2ccc(NC3CCC(CCNC(N)=O)CC3)cc2)CC1 (centres unmarked) [Compound 243] | 0.0001 to 0.1 | 
CC1(C)CCC(c2ccc(NC3CCC(CCNC(=O)[C@H]4CC(=O)NC(=O)N4)CC3)cc2)CC1 (stereo partly drawn) [Compound 244A, (R)—N-(2-(4-((4-(4,4-dimethylcyclohexyl)phenyl)amino)cyclohexyl)ethyl)-2,6-dioxohexahydro pyrimidine-4-carboxamide] | 0.0001 to 0.1 | 
CN1CCN(CC(=O)N2CCC(Nc3ccc(C(C)(C)C)cc3)CC2)C(=O)C1 [Compound 245, 1-(2-(4-((4-(tert-butyl)phenyl)amino)piperidin-1-yl)-2-oxoethyl)-4-methylpiperazin-2-one] | 1 to 10 | 
CC1(C)CCN(CCNc2ccc(C(C)(C)C)cc2)CC1 [Compound 246, 4-(tert-butyl)-N-(2-(4,4-dimethylpiperidin-1-yl)ethyl)aniline] | 0.1 to 1 | 
